Source: PubChem BioAssay AID248 (DTP/NCI, 2004)
Where “and” joins values, the source holds several entries; their conditions need not be identical. Identical values can stand only once. Inconclusive results and toxic doses are left out. No stated cut-off is given here; in the data, active means T/C of 150% or more; inactive means T/C below 125%.

System: L1210 leukemia ip in BDF1 mice, survival T/C
Assay: NCI In Vivo Anticancer Drug Screen. Data for tumor model L1210 Leukemia (intraperitoneal) in B6D2F1 (BDF1) mice
Conditions: endpoint: mean survival time, higher = longer survival
In short: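 Tumor was transplanted into mice, which were then dosed with test compound or vehicle alone. Survival was recorded for each group, and the treated figure was expressed relative to the control figure.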

[1] = dose: 100.0 mg/kg/injection, schedule: Q01DX009 (ip), vehicle: Klucel (hydroxypropylcellulose) (HPC)
[2] = dose: 200.0 mg/kg/injection, schedule: Q01DX009 (ip), vehicle: Klucel (hydroxypropylcellulose) (HPC)
[3] = dose: 100.0 mg/kg/injection, schedule: Q04DX003 (ip), vehicle: saline with Tween-80
[4] = dose: 200.0 mg/kg/injection, schedule: Q04DX003 (ip), vehicle: saline with Tween-80
[5] = dose: 400.0 mg/kg/injection, schedule: Q04DX003 (ip), vehicle: saline with Tween-80

Measured: T/C

O=c1cc(CO)occ1O
inactive: dose: 100.0 mg/kg/injection, schedule: Q01DX009 (ip), vehicle: saline with Tween-80 93 % of control | dose: 100.0 mg/kg/injection, schedule: Q01DX009 (ip), vehicle: saline 92 % of control | dose: 200.0 mg/kg/injection, schedule: Q01DX009 (ip), vehicle: saline with Tween-80 90 % of control | dose: 200.0 mg/kg/injection, schedule: Q01DX009 (ip), vehicle: saline 106 % of control | dose: 400.0 mg/kg/injection, schedule: Q01DX009 (ip), vehicle: saline with Tween-80 92 % of control | dose: 400.0 mg/kg/injection, schedule: Q01DX009 (ip), vehicle: saline 97 % of control

O=C(Nc1ccccc1Cl)Oc1ccccc1-c1ccccc1
inactive: dose: 100.0 mg/kg/injection, schedule: Q04DX002 (ip), vehicle: Klucel (hydroxypropylcellulose) (HPC) 106 % of control | dose: 200.0 mg/kg/injection, schedule: Q04DX002 (ip), vehicle: Klucel (hydroxypropylcellulose) (HPC) 113 % of control | dose: 400.0 mg/kg/injection, schedule: Q04DX002 (ip), vehicle: Klucel (hydroxypropylcellulose) (HPC) 120 % of control

O=C(O)/C(=C\CCC/C=C(\CCO)C(=O)O)CCO
inactive: dose: 100.0 mg/kg/injection, schedule: Q01DX001 (ip), vehicle: DMSO 100 % of control | dose: 100.0 mg/kg/injection, schedule: Q01DX009 (ip), vehicle: DMSO 99 % of control | dose: 200.0 mg/kg/injection, schedule: Q01DX001 (ip), vehicle: DMSO 97 % of control | dose: 200.0 mg/kg/injection, schedule: Q01DX009 (ip), vehicle: DMSO 99 % of control | dose: 400.0 mg/kg/injection, schedule: Q01DX001 (ip), vehicle: DMSO 102 % of control | dose: 400.0 mg/kg/injection, schedule: Q01DX009 (ip), vehicle: DMSO 91 % of control

CC(C)N(CCC#N)CN1C(=O)c2ccccc2C1=O
inactive: [1] 94 % of control | [2] 91 % of control

CC(C)c1ccc(OS(=O)(=O)c2cccc([N+](=O)[O-])c2)cc1
inactive: [3] 100 % of control | [4] 100 % of control | [5] 98 % of control

CCOC(=O)CCC(NC(=O)c1ccc(I)cc1)C(=O)OCC (centres undefined)
inactive: dose: 100.0 mg/kg/injection, schedule: Q04DX003 (ip), vehicle: Klucel (hydroxypropylcellulose) (HPC) 94 % of control | dose: 200.0 mg/kg/injection, schedule: Q04DX003 (ip), vehicle: Klucel (hydroxypropylcellulose) (HPC) 96 % of control | dose: 400.0 mg/kg/injection, schedule: Q04DX003 (ip), vehicle: Klucel (hydroxypropylcellulose) (HPC) 102 % of control

C/C(O)=C(\C#N)c1ccc(Cl)cc1
inactive: dose: 12.5 mg/kg/injection, schedule: Q01DX001 (ip), vehicle: carboxymethylcellulose (CMC) 100 % of control | dose: 12.5 mg/kg/injection, schedule: Q04DX003 (ip), vehicle: carboxymethylcellulose (CMC) 100 % of control and 104 % of control | dose: 25.0 mg/kg/injection, schedule: Q01DX001 (ip), vehicle: carboxymethylcellulose (CMC) 108 % of control | dose: 25.0 mg/kg/injection, schedule: Q01DX009 (ip), vehicle: carboxymethylcellulose (CMC) 103 % of control and 113 % of control | dose: 25.0 mg/kg/injection, schedule: Q04DX002 (ip), vehicle: carboxymethylcellulose (CMC) 99 % of control and 100 % of control | dose: 25.0 mg/kg/injection, schedule: Q04DX003 (ip), vehicle: carboxymethylcellulose (CMC) 98 % of control and 90 % of control | dose: 50.0 mg/kg/injection, schedule: Q01DX001 (ip), vehicle: carboxymethylcellulose (CMC) 103 % of control and 111 % of control | dose: 50.0 mg/kg/injection, schedule: Q01DX009 (ip), vehicle: carboxymethylcellulose (CMC) 96 % of control and 100 % of control | dose: 50.0 mg/kg/injection, schedule: Q04DX002 (ip), vehicle: carboxymethylcellulose (CMC) 102 % of control and 103 % of control | dose: 50.0 mg/kg/injection, schedule: Q04DX003 (ip), vehicle: carboxymethylcellulose (CMC) 94 % of control and 98 % of control | dose: 100.0 mg/kg/injection, schedule: Q01DX001 (ip), vehicle: carboxymethylcellulose (CMC) 97 % of control and 102 % of control | dose: 100.0 mg/kg/injection, schedule: Q01DX009 (ip), vehicle: carboxymethylcellulose (CMC) 94 % of control | dose: 100.0 mg/kg/injection, schedule: Q04DX002 (ip), vehicle: carboxymethylcellulose (CMC) 93 % of control and 90 % of control

COC1CCC2CCN(C)C(Cc3ccc(Oc4ccc(CC5C6CC(OC)CCC6CCN5C)cc4)cc3)C2C1 (centres undefined)
inactive: dose: 0.39 mg/kg/injection, schedule: Q01DX009 (ip), vehicle: saline with Tween-80 96 % of control | dose: 0.78 mg/kg/injection, schedule: Q01DX009 (ip), vehicle: saline with Tween-80 96 % of control and 108 % of control | dose: 1.56 mg/kg/injection, schedule: Q01DX009 (ip), vehicle: saline with Tween-80 108 % of control | dose: 3.13 mg/kg/injection, schedule: Q01DX009 (ip), vehicle: saline with Tween-80 102 % of control

Cc1ccc([S+](c2ccccc2)c2cc(C)ccc2C)cc1 (centres undefined)
inactive: dose: 2.5 mg/kg/injection, schedule: Q01DX001 (ip), vehicle: carboxymethylcellulose (CMC) 103 % of control | dose: 5.0 mg/kg/injection, schedule: Q01DX001 (ip), vehicle: carboxymethylcellulose (CMC) 102 % of control

O=C(O)/C=C\C(=O)Nc1ccc(F)cc1
inactive: [3] 98 % of control | [4] 101 % of control | [5] 101 % of control

Cn1c(O)c(N=NC(=O)Cc2c[nH]c3ccccc23)c2ccccc21
inactive: dose: 100.0 mg/kg/injection, schedule: Q01DX001 (ip), vehicle: other 101 % of control | dose: 200.0 mg/kg/injection, schedule: Q01DX001 (ip), vehicle: other 95 % of control | dose: 400.0 mg/kg/injection, schedule: Q01DX001 (ip), vehicle: other 95 % of control

CCCCNCCCC(C(=O)O)c1ccccc1 (centres undefined)
inactive: dose: 75.0 mg/kg/injection, schedule: Q01DX001 (ip), vehicle: carboxymethylcellulose (CMC) 100 % of control | dose: 150.0 mg/kg/injection, schedule: Q01DX001 (ip), vehicle: carboxymethylcellulose (CMC) 90 % of control | dose: 300.0 mg/kg/injection, schedule: Q01DX001 (ip), vehicle: carboxymethylcellulose (CMC) 90 % of control

Oc1c(Br)cc(Br)c2cccnc12
inactive: [1] 100 % of control | dose: 100.0 mg/kg/injection, schedule: Q04DX003 (ip), vehicle: saline 98 % of control | [2] 91 % of control | dose: 200.0 mg/kg/injection, schedule: Q04DX003 (ip), vehicle: saline 102 % of control | dose: 400.0 mg/kg/injection, schedule: Q01DX009 (ip), vehicle: Klucel (hydroxypropylcellulose) (HPC) 86 % of control | dose: 400.0 mg/kg/injection, schedule: Q04DX003 (ip), vehicle: saline 96 % of control

CCOC(=O)C1NC(=O)C(C(=O)OCC)C1C(C)C (centres undefined)
inactive: dose: 75.0 mg/kg/injection, schedule: Q04DX003 (ip), vehicle: Klucel (hydroxypropylcellulose) (HPC) 102 % of control | dose: 100.0 mg/kg/injection, schedule: Q01DX001 (ip), vehicle: Klucel (hydroxypropylcellulose) (HPC) 103 % of control | dose: 150.0 mg/kg/injection, schedule: Q04DX003 (ip), vehicle: Klucel (hydroxypropylcellulose) (HPC) 98 % of control | dose: 200.0 mg/kg/injection, schedule: Q01DX001 (ip), vehicle: Klucel (hydroxypropylcellulose) (HPC) 103 % of control | dose: 300.0 mg/kg/injection, schedule: Q04DX003 (ip), vehicle: Klucel (hydroxypropylcellulose) (HPC) 100 % of control | dose: 400.0 mg/kg/injection, schedule: Q01DX001 (ip), vehicle: Klucel (hydroxypropylcellulose) (HPC) 109 % of control

O=C(Nc1cccc(Cl)c1)Oc1cccc2c1CCC2
inactive: dose: 100.0 mg/kg/injection, schedule: Q04DX002 (sc), vehicle: olive oil, sesame oil, peanut oil 97 % of control | dose: 200.0 mg/kg/injection, schedule: Q04DX002 (sc), vehicle: olive oil, sesame oil, peanut oil 94 % of control | dose: 400.0 mg/kg/injection, schedule: Q04DX002 (sc), vehicle: olive oil, sesame oil, peanut oil 102 % of control

CC1=C(C)C2(C)C1(C)C1(C)C(C)=C(C)C21C (centres undefined)
inactive: dose: 100.0 mg/kg/injection, schedule: Q01DX009 (ip), vehicle: acetone 86 % of control | dose: 200.0 mg/kg/injection, schedule: Q01DX009 (ip), vehicle: acetone 86 % of control

CN(N=O)C(=O)NCCn1cnc2c(=S)nc[nH]c21
inactive: dose: 6.0 mg/kg/injection, schedule: Q01DX Z (ip), vehicle: carboxymethylcellulose (CMC) 95 % of control | dose: 12.0 mg/kg/injection, schedule: Q01DX Z (ip), vehicle: carboxymethylcellulose (CMC) 92 % of control | dose: 25.0 mg/kg/injection, schedule: Q01DX Z (ip), vehicle: carboxymethylcellulose (CMC) 109 % of control | dose: 50.0 mg/kg/injection, schedule: Q01DX Z (ip), vehicle: carboxymethylcellulose (CMC) 114 % of control | dose: 100.0 mg/kg/injection, schedule: Q01DX Z (ip), vehicle: carboxymethylcellulose (CMC) 104 % of control | dose: 150.0 mg/kg/injection, schedule: Q01DX Z (ip), vehicle: carboxymethylcellulose (CMC) 121 % of control
